In patent US12077503B2, “Substituted cyclic amides and their use as herbicides” (FMC CORPORATION, priority 2015, dated 2024):

What was measured:
Assay type in all cases: in vivo
[1] = test system: barnyardgrass (Echinochloa crus-galli); test: Test G Pre-Emergence Protocol; details: Echinochloa crus-galli, pre-emergence, 312 h, evaluated after 13 days; for pest or weed control at 15.625 g/ha: 15.625 g ai/ha, read-out: Barnyard grass damage rating (100=total damage to plant; 0=no damage to plant); for pest or weed control at 62.5 g/ha: 62.5 g ai/ha, 100=total damage to plant, 0=no damage to plant, read-out: plant damage rating, Barnyardgrass; for pest or weed control at 250 g/ha: 250 g ai/ha, read-out: Barnyardgrass damage rating (100=total damage to plant; 0=no damage to plant)
Description: (§1) Seeds of corn (Zea mays), giant foxtail (Setaria faberi), barnyardgrass (Echinochloa crus-galli), ivy-leaved morning glory (Ipomoea hederacea), redroot pigweed (Amaranthus retroflexus) and velvetleaf (Abutilon theophrasti) were sown in standard soil in pots. After cultivation for one day under controlled conditions in a glasshouse (at 24/16° C., day/night; 14 hours light; 65% humidity), the plants were sprayed with an aqueous spray solution derived from the formulation of the technical active ingredient in acetone/water (50:50) solution containing 0.5% Tween 20 (polyoxyethylene sorbitan monolaurate, CAS RN 9005-64-5) to give a final dose of 15.625, 62.5 or 250 g/ha of test compound.
(§2) The test plants were then grown on under controlled conditions in a glasshouse (at 24/16° C., day/night; 14 hours light; 65% humidity) and watered twice daily. After 13 days the test was evaluated (100=total damage to plant; 0=no damage to plant). A dash (-) means no test result.

corn (Zea mays) [2] = test: Test G Pre-Emergence Protocol; details: Zea mays, pre-emergence, 312 h, evaluated after 13 days; for plant injury at 15.625 g/ha: 15.625 g ai/ha; for plant injury at 15.625 g/ha / plant injury at 250 g/ha: read-out: Corn damage rating (100=total damage to plant; 0=no damage to plant); for plant injury at 62.5 g/ha: 62.5 g ai/ha, 100=total damage to plant, 0=no damage to plant, read-out: plant damage rating, Corn; for plant injury at 250 g/ha: 250 g ai/ha
Description: as §1, §2

[3] = test system: giant foxtail (Setaria faberi); test: Test G Pre-Emergence Protocol; details: Setaria faberi, pre-emergence, 312 h, evaluated after 13 days; for pest or weed control at 15.625 g/ha: 15.625 g ai/ha; for pest or weed control at 15.625 g/ha / pest or weed control at 250 g/ha: read-out: Foxtail, Giant damage rating (100=total damage to plant; 0=no damage to plant); for pest or weed control at 62.5 g/ha: 62.5 g ai/ha, 100=total damage to plant, 0=no damage to plant, read-out: plant damage rating, Foxtail, Giant; for pest or weed control at 250 g/ha: 250 g ai/ha
Description: as §1, §2

[4] = test system: ivy-leaved morning glory (Ipomoea hederacea); test: Test G Pre-Emergence Protocol; details: Ipomoea, pre-emergence, 312 h, evaluated after 13 days; for pest or weed control at 15.625 g/ha: 15.625 g ai/ha, read-out: Morning-glory, Ivy-leaved damage rating (100=total damage to plant; 0=no damage to plant); for pest or weed control at 62.5 g/ha: 62.5 g ai/ha, 100=total damage to plant, 0=no damage to plant, read-out: plant damage rating, Morningglory, Ivy-leaved; for pest or weed control at 250 g/ha: 250 g ai/ha, read-out: Morningglory, Ivy-leaved damage rating (100=total damage to plant; 0=no damage to plant)
Description: as §1, §2

[5] = test system: redroot pigweed (Amaranthus retroflexus); test: Test G Pre-Emergence Protocol; details: Amaranthus retroflexus, pre-emergence, 312 h, evaluated after 13 days; for pest or weed control at 15.625 g/ha: 15.625 g ai/ha; for pest or weed control at 15.625 g/ha / pest or weed control at 250 g/ha: read-out: Pigweed, Redroot damage rating (100=total damage to plant; 0=no damage to plant); for pest or weed control at 62.5 g/ha: 62.5 g ai/ha, 100=total damage to plant, 0=no damage to plant, read-out: plant damage rating, Pigweed, Redroot; for pest or weed control at 250 g/ha: 250 g ai/ha
Description: as §1, §2

[6] = test system: velvetleaf (Abutilon theophrasti); test: Test G Pre-Emergence Protocol; details: Abutilon theophrasti, pre-emergence, 312 h, evaluated after 13 days; for pest or weed control at 15.625 g/ha: 15.625 g ai/ha; for pest or weed control at 15.625 g/ha / pest or weed control at 250 g/ha: read-out: Velvetleaf damage rating (100=total damage to plant; 0=no damage to plant); for pest or weed control at 62.5 g/ha: 62.5 g ai/ha, 100=total damage to plant, 0=no damage to plant, read-out: plant damage rating, Velvetleaf; for pest or weed control at 250 g/ha: 250 g ai/ha
Description: as §1, §2

[7] = test system: barnyardgrass (Echinochloa crus-galli); test: Test G Post-Emergence Protocol; details: Echinochloa crus-galli, post-emergence, 312 h; for pest or weed control at 15.625 g/ha: 15.625 g ai/ha, evaluated after 13 days (100=total damage to plant; 0=no damage to plant), read-out: Barnyardgrass damage rating; for pest or weed control at 62.5 g/ha: 62.5 g ai/ha, read-out: Barnyardgrass damage rating (100=total damage to plant; 0=no damage to plant); for pest or weed control at 62.5 g/ha / pest or weed control at 250 g/ha: evaluated after 13 days; for pest or weed control at 250 g/ha: 250 g ai/ha, read-out: damage to plant, Barnyardgrass (100=total damage to plant; 0=no damage to plant)
Description: as §1, with “8 days” for “one day”
as §2

corn (Zea mays) [8] = test: Test G Post-Emergence Protocol; details: Zea mays, post-emergence, 312 h; for plant injury at 15.625 g/ha: 15.625 g ai/ha, evaluated after 13 days (100=total damage to plant; 0=no damage to plant), read-out: Corn damage rating; for plant injury at 62.5 g/ha: 62.5 g ai/ha, read-out: Corn damage rating (100=total damage to plant; 0=no damage to plant); for plant injury at 62.5 g/ha / plant injury at 250 g/ha: evaluated after 13 days; for plant injury at 250 g/ha: 250 g ai/ha, read-out: damage to plant, Corn (100=total damage to plant; 0=no damage to plant)
Description: as §1, with “8 days” for “one day”
as §2

[9] = test system: giant foxtail (Setaria faberi); test: Test G Post-Emergence Protocol; details: Setaria faberi, post-emergence, 312 h; for pest or weed control at 15.625 g/ha: 15.625 g ai/ha, evaluated after 13 days (100=total damage to plant; 0=no damage to plant), read-out: Foxtail, Giant damage rating; for pest or weed control at 62.5 g/ha: 62.5 g ai/ha, read-out: Foxtail, Giant damage rating (100=total damage to plant; 0=no damage to plant); for pest or weed control at 62.5 g/ha / pest or weed control at 250 g/ha: evaluated after 13 days; for pest or weed control at 250 g/ha: 250 g ai/ha, read-out: damage to plant, Foxtail, Giant (100=total damage to plant; 0=no damage to plant)
Description: as §1, with “8 days” for “one day”
as §2

[10] = test system: ivy-leaved morning glory (Ipomoea hederacea); test: Test G Post-Emergence Protocol; details: Ipomoea, post-emergence, 312 h; for pest or weed control at 15.625 g/ha: 15.625 g ai/ha, evaluated after 13 days (100=total damage to plant; 0=no damage to plant), read-out: Morningglory, Ivy-leaved damage rating; for pest or weed control at 62.5 g/ha: 62.5 g ai/ha, read-out: Morningglory, Ivy-leaved damage rating (100=total damage to plant; 0=no damage to plant); for pest or weed control at 62.5 g/ha / pest or weed control at 250 g/ha: evaluated after 13 days; for pest or weed control at 250 g/ha: 250 g ai/ha, read-out: damage to plant, Morningglory, Ivy-leaved (100=total damage to plant; 0=no damage to plant)
Description: as §1, with “8 days” for “one day”
as §2

[11] = test system: redroot pigweed (Amaranthus retroflexus); test: Test G Post-Emergence Protocol; details: Amaranthus retroflexus, post-emergence, 312 h; for pest or weed control at 15.625 g/ha: 15.625 g ai/ha, evaluated after 13 days (100=total damage to plant; 0=no damage to plant), read-out: Pigweed, Redroot damage rating; for pest or weed control at 62.5 g/ha: 62.5 g ai/ha, read-out: Pigweed, Redroot damage rating (100=total damage to plant; 0=no damage to plant); for pest or weed control at 62.5 g/ha / pest or weed control at 250 g/ha: evaluated after 13 days; for pest or weed control at 250 g/ha: 250 g ai/ha, read-out: damage to plant, Pigweed, Redroot (100=total damage to plant; 0=no damage to plant)
Description: as §1, with “8 days” for “one day”
as §2

[12] = test system: velvetleaf (Abutilon theophrasti); test: Test G Post-Emergence Protocol; details: Abutilon theophrasti, post-emergence, 312 h; for pest or weed control at 15.625 g/ha: 15.625 g ai/ha, evaluated after 13 days (100=total damage to plant; 0=no damage to plant), read-out: Velvetleaf damage rating; for pest or weed control at 62.5 g/ha: 62.5 g ai/ha, read-out: Velvetleaf damage rating (100=total damage to plant; 0=no damage to plant); for pest or weed control at 62.5 g/ha / pest or weed control at 250 g/ha: evaluated after 13 days; for pest or weed control at 250 g/ha: 250 g ai/ha, read-out: damage to plant, Velvetleaf (100=total damage to plant; 0=no damage to plant)
Description: as §1, with “8 days” for “one day”
as §2

Row | Compound | pest or weed control at 15.625 g/ha [1] [%] | pest or weed control at 62.5 g/ha [1] [%] | pest or weed control at 250 g/ha [1] [%] | plant injury at 15.625 g/ha (corn (Zea mays) [2]) [%] | plant injury at 62.5 g/ha (corn (Zea mays) [2]) [%] | plant injury at 250 g/ha (corn (Zea mays) [2]) [%] | pest or weed control at 15.625 g/ha [3] [%] | pest or weed control at 62.5 g/ha [3] [%] | pest or weed control at 250 g/ha [3] [%] | pest or weed control at 15.625 g/ha [4] [%] | pest or weed control at 62.5 g/ha [4] [%] | pest or weed control at 250 g/ha [4] [%] | pest or weed control at 15.625 g/ha [5] [%] | pest or weed control at 62.5 g/ha [5] [%] | pest or weed control at 250 g/ha [5] [%] | pest or weed control at 15.625 g/ha [6] [%] | pest or weed control at 62.5 g/ha [6] [%] | pest or weed control at 250 g/ha [6] [%] | pest or weed control at 15.625 g/ha [7] [%] | pest or weed control at 62.5 g/ha [7] [%] | other results
1 | CN1C[C@H](c2ccc(F)c(C#N)c2)[C@@H](C(=O)Nc2ccccc2F)C1=O (racemic) [Compound 1468] | 10 | 70 | 80 | 0 | 0 | 0 | 80 | 80 | 90 | 0 | 0 | 0 | 0 | 0 | 0 | 0 | 0 | 0 | 10 | 50 | pest or weed control at 250 g/ha [7]: 40%; plant injury at 15.625 g/ha (corn (Zea mays) [8]): 10%; plant injury at 62.5 g/ha (corn (Zea mays) [8]): 10%; plant injury at 250 g/ha (corn (Zea mays) [8]): 10%; pest or weed control at 15.625 g/ha [9]: 30%; pest or weed control at 62.5 g/ha [9]: 70%; pest or weed control at 250 g/ha [9]: 70%; pest or weed control at 15.625 g/ha [10]: 10%; pest or weed control at 62.5 g/ha [10]: 0%; pest or weed control at 250 g/ha [10]: 10%; pest or weed control at 15.625 g/ha [11]: 10%; pest or weed control at 62.5 g/ha [11]: 0%; pest or weed control at 250 g/ha [11]: 30%; pest or weed control at 15.625 g/ha [12]: 0%; pest or weed control at 62.5 g/ha [12]: 0%; pest or weed control at 250 g/ha [12]: 10%
2 | CN1C[C@H](c2ccc(C(F)(F)F)cc2)[C@@H](C(=O)NC2=NOC(C)(C)C2)C1=O (racemic) [Compound 1427] | 0 | 0 | 0 | 0 | 0 | 0 | 0 | 0 | 0 | 0 | 0 | 0 | 0 | 0 | 0 | 0 | 0 | 0 | 0 | 0 | pest or weed control at 250 g/ha [7]: 0%; plant injury at 15.625 g/ha (corn (Zea mays) [8]): 0%; plant injury at 62.5 g/ha (corn (Zea mays) [8]): 0%; plant injury at 250 g/ha (corn (Zea mays) [8]): 0%; pest or weed control at 15.625 g/ha [9]: 0%; pest or weed control at 62.5 g/ha [9]: 0%; pest or weed control at 250 g/ha [9]: 0%; pest or weed control at 15.625 g/ha [10]: 0%; pest or weed control at 62.5 g/ha [10]: 0%; pest or weed control at 250 g/ha [10]: 0%; pest or weed control at 15.625 g/ha [11]: 0%; pest or weed control at 62.5 g/ha [11]: 0%; pest or weed control at 250 g/ha [11]: 0%; pest or weed control at 15.625 g/ha [12]: 0%; pest or weed control at 62.5 g/ha [12]: 0%; pest or weed control at 250 g/ha [12]: 0%
